Measured values reported in patent publication US20250089717A1, “FUNGICIDAL HALOMETHYL KETONES, HYDRATES AND ENOL ETHERS AND THEIR MIXTURES” (FMC CORPORATION, priority 2023, published 2025).

What follows are compounds tested on Phakopsora pachyrhizi (assay: Test A: preventive spray on soybean seedlings, Asian soybean rust, visual disease rating). Settings: rate 10 ppm.
Assay type: in vivo
Text: General protocol for preparing test suspensions for Test A: the test compounds were first dissolved in acetone in an amount equal to 3% of the final volume and then suspended at the desired concentration (in ppm) in acetone and purified water (50/50 mix by volume) containing 250 ppm of the surfactant PEG400 (polyhydric alcohol esters). The resulting test suspensions were then used in Test A.
The test solution was sprayed to the point of run-off on soybean seedlings. The following day the seedlings were inoculated with a spore suspension of Phakopsora pachyrhizi (the causal agent of Asian soybean rust) and incubated in a saturated atmosphere at 22° C. for 24 h and then moved to a growth chamber at 22° C. for 8 days, after which time visual disease ratings were made.
A rating of 100 indicates 100% disease control and a rating of 0 indicates no disease control (relative to the controls).
For CCO/C(=C\Oc1ccc(Cn2cc(COC(=O)CC(F)(F)F)nn2)cc1)C(F)(F)F [Compound 11], the “Test A rating (100 = 100% disease control, 0 = no disease control relative to the controls)” value was 0%. In the case of CCO/C(=C\Oc1ccc(Cn2cc(C(=O)NOCCO)cn2)cc1)C(F)(F)F [compound 67], the “Test A rating (100 = 100% disease control, 0 = no disease control relative to the controls)” value is reported as 100%. CCO/C(=C\Oc1ccc(Cn2cc(C(=O)NOCC(F)(F)F)cn2)c(F)c1F)C(F)(F)F [Compound 79] was tested, and the “Test A rating (100 = 100% disease control, 0 = no disease control relative to the controls)” value was 100%. With CCO/C(=C\Oc1ccc(Cn2cc(COC(=O)C3CC3)cn2)c(F)c1F)C(F)(F)F [Compound 71] the “Test A rating (100 = 100% disease control, 0 = no disease control relative to the controls)” value was 100%. With CCO/C(=C\Oc1ccc(Cn2cc(C(=O)NOCC3CC3)cn2)c(F)c1)C(F)(F)F [Compound 82] the “Test A rating (100 = 100% disease control, 0 = no disease control relative to the controls)” value was 100%. For CCO/C(=C\Oc1ccc(Cn2cc(COC(=O)C3CC3)cn2)c(F)c1)C(F)(F)F [Compound 76], the “Test A rating (100 = 100% disease control, 0 = no disease control relative to the controls)” value was 100%. In the case of CCO/C(=C\Oc1ccc(Cn2cc(COC(=O)C(CC)CC)cn2)cc1)C(F)(F)F [compound 36], the “Test A rating (100 = 100% disease control, 0 = no disease control relative to the controls)” value is reported as 100%. For CCO/C(=C\Oc1ccc(Cn2cccc(C(=O)NOCCOC)c2=O)cc1)C(F)(F)F [compound 103], the “Test A rating (100 = 100% disease control, 0 = no disease control relative to the controls)” value was 97%. In the case of C=CCON(CCCC)C(=O)c1cnn(Cc2ccc(O/C=C(\OCC)C(F)(F)F)cc2)c1 [compound 43], the “Test A rating (100 = 100% disease control, 0 = no disease control relative to the controls)” value is reported as 87%. In the case of C=CCON=C(OCC)c1cnn(CCc2ccc(O/C=C(\OCC)C(F)(F)F)cc2)c1 [compound 61], the “Test A rating (100 = 100% disease control, 0 = no disease control relative to the controls)” value is reported as 100%. For CCO/C(=C\Oc1ccc(Cn2cc(COC(C)=O)nn2)cc1)C(F)(F)F [Compound 37], the “Test A rating (100 = 100% disease control, 0 = no disease control relative to the controls)” value was 100%. CCO/C(=C\Oc1ccc(Cn2cccc(C(=O)NOCC#N)c2=O)cc1)C(F)(F)F [compound 98] was tested, and the “Test A rating (100 = 100% disease control, 0 = no disease control relative to the controls)” value was 99%. With CCO/C(=C\Oc1ccc(Cc2cccc(C(=O)NOCC(F)(F)F)n2)cc1)C(F)(F)F [Compound 127, 2-[[4-1[[(1Z)-2-ethoxy-3,3,3-trifluoro-1-propen-1-yl]oxy]phenyl]methyl]-N-(2,2,2-trifluoroethoxy)-6-pyridinecarboxamide] the “Test A rating (100 = 100% disease control, 0 = no disease control relative to the controls)” value was 99%. CCO/C(=C\Oc1ccc(Cn2cc(CC(=O)OCC3CC3)cn2)cc1)C(F)(F)F [compound 13] was tested, and the “Test A rating (100 = 100% disease control, 0 = no disease control relative to the controls)” value was 96%. For CCO/C(=C\Oc1ccc(Cn2cc(COC(=O)COC)nn2)cc1)C(F)(F)F [Compound 10], the “Test A rating (100 = 100% disease control, 0 = no disease control relative to the controls)” value was 0%. In the case of CCO/C(=C\Oc1ccc(Cn2cc(COC(=O)C3CCCC3)nn2)cc1)C(F)(F)F [Compound 12], the “Test A rating (100 = 100% disease control, 0 = no disease control relative to the controls)” value is reported as 79%. With C#CCOCc1cnn(Cc2ccc(O/C=C(\OCC)C(F)(F)F)cc2)c1 [compound 65] the “Test A rating (100 = 100% disease control, 0 = no disease control relative to the controls)” value was 100%. With C=CCON=C(OCCCC)c1cnn(Cc2ccc(O/C=C(\OCC)C(F)(F)F)cc2)c1 [compound 42] the “Test A rating (100 = 100% disease control, 0 = no disease control relative to the controls)” value was 96%. CCOC(=O)OCc1cnn(Cc2ccc(O/C=C(\OCC)C(F)(F)F)cc2)c1 [compound 53] was tested, and the “Test A rating (100 = 100% disease control, 0 = no disease control relative to the controls)” value was 100%. In the case of CCO/C(=C\Oc1ccc(Cn2cc(COC(=O)COC)cn2)c(F)c1F)C(F)(F)F [Compound 74], the “Test A rating (100 = 100% disease control, 0 = no disease control relative to the controls)” value is reported as 100%. C=CCON(CC)C(=O)c1cnn(Cc2ccc(O/C=C(\OCC)C(F)(F)F)cc2)c1 [Compound 55, ethyl 1-[[4-[[(1Z)-2-ethoxy-3,3,3-trifluoro-1-propen-1-yl]oxy]phenyl]methyl]-N-(2-propen-1-yloxy)-1H-pyrazole-4-carboxamide] was tested, and the “Test A rating (100 = 100% disease control, 0 = no disease control relative to the controls)” value was 100%. For C=CCOCc1cnn(Cc2ccc(O/C=C(\OCC)C(F)(F)F)cc2)c1 [compound 66], the “Test A rating (100 = 100% disease control, 0 = no disease control relative to the controls)” value was 100%.

Same assay, conditions: rate 10 ppm, read-out: Test A rating (100 = 100% disease control, 0 = no disease control relative to the controls)
C=CCO/N=C(/OCC)c1cnn(Cc2cccc(O/C=C(\OCC)C(F)(F)F)c2)c1 [compound 113] was tested, and the pest or weed control at 10 ppm was 87%. Compound CCO/C(=C\Oc1ccc(Cn2cc(COC(=O)CC)cn2)cc1)C(F)(F)F [Compound 21, [1-[[4-[[(1Z)-2-ethoxy-3,3,3-trifluoro-1-propen-1-yl]oxy]phenyl]methyl]-1H-pyrazol-4-yl]methyl propanoate] has a pest or weed control at 10 ppm of 100%. Compound C=CCO/N=C(/OCC)c1ccn(Cc2ccc(O/C=C(\OCC)C(F)(F)F)cc2)n1 [compound 110] has a pest or weed control at 10 ppm of 99%. With C=CCONC(=O)c1csc(Cc2ccc(O/C=C(\OCC)C(F)(F)F)cc2)n1 [compound 117] the pest or weed control at 10 ppm was 100%. C=CCONC(=O)c1cnn(Cc2cccc(O/C=C(\OCC)C(F)(F)F)c2)c1 [compound 114] gave a pest or weed control at 10 ppm of 100%. CCO/C(=C\Oc1ccc(Cc2cccc(C(=O)NOCC3CC3)n2)cc1)C(F)(F)F [Compound 124, 2-[[4-[[(1Z)-2-ethoxy-3,3,3-trifluoro-1-propen-1-yl]oxy]phenyl]methyl]-N-(cyclopropylmethoxy)-6-pyridinecarboxamide] gave a pest or weed control at 10 ppm of 100%. C#CCON(C)C(=O)c1cccc(Cc2ccc(O/C=C(\OCC)C(F)(F)F)cc2)n1 [Compound 121, 2-[[4-[[(1Z)-2-ethoxy-3,3,3-trifluoro-1-propen-1-yl]oxy]phenyl]methyl]-N-methyl-N-(2-propyn-1-yloxy)-6-pyridinecarboxamide] showed a pest or weed control at 10 ppm of 100%. With CCO/C(=C\Oc1ccc(Cc2nc(C(=O)NOCCOC)cs2)cc1)C(F)(F)F [compound 112] the pest or weed control at 10 ppm was 100%. In the case of CCO/C(=C\Oc1ccc(Cn2cc(COC(=O)CCSC)cn2)cc1)C(F)(F)F [Compound 50, [1-[[4-[[(1Z)-2-ethoxy-3,3,3-trifluoro-1-propen-1-yl]oxy]phenyl]methyl]-1H-pyrazol-4-yl]methyl 3-(methylthio)propanoate], the pest or weed control at 10 ppm is reported as 100%. With CCO/C(=C\Oc1ccc(Cn2cc(COC(C)=O)cn2)cc1)C(F)(F)F [Compound 22, [1-[[4-[[(1Z)-2-ethoxy-3,3,3-trifluoro-1-propen-1-yl]oxy]phenyl]methyl]-1H-pyrazol-4-yl]methyl acetate] the pest or weed control at 10 ppm was 100%. CCO/C(=C\Oc1ccc(Cn2cc(COC(=O)CC(C)C)cn2)cc1)C(F)(F)F [Compound 27, [1-[[4-[[(1Z)-2-ethoxy-3,3,3-trifluoro-1-propen-1-yl]oxy]phenyl]methyl]-1H-pyrazol-4-yl]methyl 3-methylbutanoate] showed a pest or weed control at 10 ppm of 100%. C=CCONC(=O)c1cc(Cc2ccc(OCC3(C(F)(F)F)OCCO3)cc2)ccn1 [compound 129] gave a pest or weed control at 10 ppm of 98%. In the case of CCO/C(=C\Oc1ccc(Cn2cc(COC(=O)C(C)C)cn2)cc1)C(F)(F)F [Compound 46, [1-[[4-[[(1Z)-2-ethoxy-3,3,3-trifluoro-1-propen-1-yl]oxy]phenyl]methyl]-1H-pyrazol-4-yl]methyl 2-methylpropanoate], the pest or weed control at 10 ppm is reported as 100%. CCO/C(=C\Oc1ccc(Cn2cc(COC(=O)N(C)OC)cn2)cc1)C(F)(F)F [Compound 18, (Z)-(1-(4-((2-ethoxy-3,3,3-trifluoroprop-1-en-1-yl)oxy)benzyl)-1H-pyrazol-4-yl)methyl methoxy(methyl)carbamate] showed a pest or weed control at 10 ppm of 100%. C=CCONC(=O)c1ccn(Cc2ccc(O/C=C(\OCC)C(F)(F)F)cc2)n1 [compound 111] was tested, and the pest or weed control at 10 ppm was 100%. CCCC(C)C(=O)OCc1cnn(Cc2ccc(O/C=C(\OCC)C(F)(F)F)cc2)c1 (centres unmarked) [Compound 30, [1-[[4-[[(1Z)-2-ethoxy-3,3,3-trifluoro-1-propen-1-yl]oxy]phenyl]methyl]-1H-pyrazol-4-yl]methyl 2-methylpentanoate] showed a pest or weed control at 10 ppm of 100%. Compound C=CCO/N=C(\OCC)c1cc(Cc2ccc(O/C=C(\OCC)C(F)(F)F)cc2)ccn1 [compound 118] has a pest or weed control at 10 ppm of 100%. CCO/C(=C\Oc1ccc(Cn2cc(C(=O)NOCC(F)(F)F)cn2)cc1)C(F)(F)F [Compound 45, 1-[[4-[[(1Z)-2-ethoxy-3,3,3-trifluoro-1-propen-1-yl]oxy]phenyl]methyl]-N-(2,2,2-trifluoroethoxy)-1H-pyrazole-4-carboxamide] gave a pest or weed control at 10 ppm of 100%. For CCO/C(=C\Oc1ccc(Cn2cc(COC(=O)CC(F)(F)F)cn2)cc1)C(F)(F)F [Compound 35, [1-[[4-[[(1Z)-2-ethoxy-3,3,3-trifluoro-1-propen-1-yl]oxy]phenyl]methyl]-1H-pyrazol-4-yl]methyl 3,3,3-trifluoropropanoate], the pest or weed control at 10 ppm was 100%. Work on CCOC(=S)c1cnn(Cc2ccc(O/C=C(\OCC)C(F)(F)F)cc2)c1 [Compound 7, O-ethyl 1-[[4-[[(1Z)-2-ethoxy-3,3,3-trifluoro-1-propen-1-yl]oxy]phenyl]methyl]-1H-pyrazole-4-carbothioate] yielded a pest or weed control at 10 ppm of 100%.

Same assay, conditions: rate 50 ppm
CC(=O)OCc1cnn(Cc2ccc(OCC3(C(F)(F)F)OCCO3)cc2)c1 [Compound 90] was tested, and the “Test A rating (100 = 100% disease control, 0 = no disease control relative to the controls)” value was 100%. For COCCC(=O)OCc1cnn(Cc2ccc(OCC3(C(F)(F)F)OCCO3)cc2)c1 [Compound 87], the “Test A rating (100 = 100% disease control, 0 = no disease control relative to the controls)” value was 100%. For CC(C)CC(=O)OCc1cnn(Cc2ccc(OCC3(C(F)(F)F)OCCO3)cc2)c1 [Compound 92], the “Test A rating (100 = 100% disease control, 0 = no disease control relative to the controls)” value was 100%. With CCOC(=O)C(=O)OCc1cnn(Cc2ccc(OCC3(C(F)(F)F)OCCO3)cc2)c1 [Compound 91] the “Test A rating (100 = 100% disease control, 0 = no disease control relative to the controls)” value was 100%.

Same assay, conditions: rate 250 ppm, read-out: Test A rating (100 = 100% disease control, 0 = no disease control relative to the controls)
Work on C=CCON(CC)C(=O)c1cccc(Cc2ccc(O/C=C(\OCC)C(F)(F)F)cc2)c1 [compound 128] yielded a pest or weed control at 250 ppm of 100%.
